The values that follow are results of earlier work, collected in patent publication US7709509B2, “Oxadiazolones and derivatives thereof as peroxisome proliferator-activated receptor (PPAR) delta agonists” (Sanofi-Aventis Deutschland GmbH, priority 2004, dated 2010).

For data set [1] the following is noted: rhesus and cynomolgus monkeys; cited from earlier work.
The conditions of data set [2]: two weeks clinical trials in healthy volunteers; cited from earlier work.

Read-outs that look alike come from different tables or passages of the source.

For the compound `CCCc1c(OCCCSc2nnc(SCC(=O)O)s2)ccc(C(C)=O)c1O` [YM-16638], the values for the plasma lipids result in data set [1] and in data set [2] were “significantly lowers” and “acts in a similar manner”, respectively.
